For 5 molecules, Activity, viability and inhibition results are on record in ChEMBL document CHEMBL5252596, “Synthesis and Cytotoxicity Evaluation of Betulin Cycloolefin Derivatives by Ruthenium-Catalyzed Ring-Closing Metathesis” (J Nat Prod, 2023).

The test system of data set [1] is HeLa. The experiment in a line: Induction of apoptosis in human HeLa cells assessed as necrotic cells at 10 uM incubated for 24 hrs by Annexin V-PE staining based flow cytometry analysis (reference value: 0.00%). The data set is classed as functional. For orientation: A flow cytometer gives signals particle by particle.
In data set [2] the test system is L929. Description: Cytotoxicity against mouse L929 cells assessed as reduction in dead cells at 10 uM incubated for 24 hrs by calcein-AM/PI staining based fluorescence microscopic analysis relative to control (reference value: 0.38%). The data set is classed as toxicity, cell-based. Also noted: scale not given: the % may be the effect or the level left. As to conditions: l929, 24 h.

Data set [3] relates to HeLa. Description: Induction of apoptosis in human HeLa cells assessed as viable cells at 10 uM incubated for 24 hrs by Annexin V-PE staining based flow cytometry analysis (reference value: 97.43%). The data set is classed as functional. Conditions: read-out: Activity.
Data set [4] deals with L929. Description: Induction of apoptosis in mouse L929 cells assessed as late apoptotic cells at 10 uM incubated for 24 hrs by Annexin V-PE staining based flow cytometry analysis (reference value: 0.53%). The data set is classed as functional.
Data set [5] deals with HeLa. Description: Induction of apoptosis in human HeLa cells assessed as late apoptotic cells at 10 uM incubated for 24 hrs by Annexin V-PE staining based flow cytometry analysis (reference value: 0.02%). The data set is classed as functional.
Data set [6] relates to L929. Description: Cytotoxicity against mouse L929 cells assessed as reduction in live cells at 10 uM incubated for 24 hrs by calcein-AM/PI staining based fluorescence microscopic analysis relative to control (reference value: 8.65%). The data set is classed as toxicity, cell-based. Details: scale not given: the % may be the effect or the level left. Conditions: l929, 24 h.

Data set [7] deals with HeLa. The experiment in a line: Induction of apoptosis in human HeLa cells assessed as early apoptotic cells at 10 uM incubated for 24 hrs by Annexin V-PE staining based flow cytometry analysis (reference value: 2.55%). The data set is classed as functional.
The test system of data set [8] is L929. The experiment in a line: Induction of apoptosis in mouse L929 cells assessed as necrotic cells at 10 uM incubated for 24 hrs by Annexin V-PE staining based flow cytometry analysis (reference value: 0.00%). The data set is classed as functional.
Data set [9] has as its system L929. Description: Induction of apoptosis in mouse L929 cells assessed as early apoptotic cells at 10 uM incubated for 24 hrs by Annexin V-PE staining based flow cytometry analysis (reference value: 1.47%). The data set is classed as functional.
Data set [10] concerns L929. The experiment in a line: Induction of apoptosis in mouse L929 cells assessed as viable cells at 10 uM incubated for 24 hrs by Annexin V-PE staining based flow cytometry analysis (reference value: 98%). The data set is classed as functional. As to conditions: read-out: Activity.
In data set [11] the test system is HeLa. Description: Antiproliferative activity against human HeLa cells assessed as reduction in dead cells at 10 uM incubated for 24 hrs by calcein-AM/PI staining based fluorescence microscopic analysis relative to control (reference value: 0.15%). The data set is classed as functional. Also noted: scale not given: the % may be the effect or the level left.
A short description of data set [12]: Cytotoxicity against mouse L929 cells assessed as cell growth inhibition at 10 uM incubated for 24 hrs by CCK-8 assay relative to control. The data set is classed as toxicity, cell-based. Conditions: read-out: Activity.
In data set [13] the test system is HeLa. The experiment in a line: Antiproliferative activity against human HeLa cells assessed as cell growth inhibition at 10 uM incubated for 24 hrs by CCK-8 assay relative to control. The data set is classed as functional. Details: scale not given: the % may be the effect or the level left. (In general: Tetrazolium dyes change colour on reduction, which living cells bring about.)

The test system of data set [14] is HeLa. Description: Antiproliferative activity against human HeLa cells assessed as reduction in live cells at 10 uM incubated for 24 hrs by calcein-AM/PI staining based fluorescence microscopic analysis relative to control (reference value: 3.78%). The data set is classed as functional. Details: scale not given: the % may be the effect or the level left.

In the case of `C=CCCC(=O)OC[C@]12CC[C@@H](C(=C)C)[C@@H]1[C@H]1CC[C@@H]3[C@@]4(C)CC[C@H](O)C(C)(C)[C@@H]4CC[C@@]3(C)[C@]1(C)CC2`, the Activity in the data set on HeLa [1] was 0.53%; in the data set with L929 [2], 2.83%; in the data set with L929 [4], 5.86%; in the data set on HeLa [5], 30.3%; with L929 [6], 2.15%; with HeLa [7], 10.95%. Further, the Activity is reported as 0% in the data set with L929 [8]; 9.38% with L929 [9]; 1.02% in the data set on HeLa [11]; 37% with HeLa [13]; 1.4% in the data set with HeLa [14]. The viability at 10 µM with HeLa [3] is 58.2%; in the data set with L929 [10], 84.8%. Besides, in data set [12], the inhibition at 24 h, 10 µM is 29%.
Take `C=CCCCCCCCCC(=O)OC[C@]12CC[C@@H](C(=C)C)[C@@H]1[C@H]1CC[C@@H]3[C@@]4(C)CC[C@H](O)C(C)(C)[C@@H]4CC[C@@]3(C)[C@]1(C)CC2`: the Activity in the data set with HeLa [1] is 1.41%; in the data set on L929 [2], 1.77%; with L929 [4], 4.55%; with HeLa [5], 18.58%; with L929 [6] it was 4.65%; in the data set with HeLa [7] it was 0.98%. Also, the Activity is reported as 1.29% in the data set on L929 [8]; 0.75% in the data set on L929 [9]; 0.69% with HeLa [11]; 55% in the data set with HeLa [13]; 2.03% in the data set on HeLa [14]. In addition, the viability at 10 µM with HeLa [3] stood at 79%; in the data set on L929 [10] it was 82%. In data set [12], the inhibition at 24 h, 10 µM turned out to be 47%.
Turning to `C/C1=C/CCCCCCCCC(=O)OC[C@]23CC[C@@H]1[C@@H]2[C@H]1CC[C@@H]2[C@@]4(C)CC[C@H](O)C(C)(C)[C@@H]4CC[C@@]2(C)[C@]1(C)CC3`, the Activity in the data set on HeLa [1] is given as 0.61%; in the data set with L929 [2], 2.1%; in the data set with L929 [4] it was 5.04%; in the data set with HeLa [5], 26.22%; in the data set on L929 [6], 3.67%; with HeLa [7], 2.66%. Also, the Activity in the data set on L929 [8] is reported as 5.18%; in the data set with L929 [9] it was 12.6%; in the data set on HeLa [11], 0.91%; in the data set on HeLa [14] it was 1.29%. For the same molecule, the viability at 10 µM in the data set on HeLa [3] came out at 70.5%; in the data set with L929 [10], 77.2%.
As for `C/C1=C/CCC(=O)OC[C@]23CC[C@@H]1[C@@H]2[C@H]1CC[C@@H]2[C@@]4(C)CC[C@H](O)C(C)(C)[C@@H]4CC[C@@]2(C)[C@]1(C)CC3`, the Activity in the data set on HeLa [1] was 0.65%; in the data set with L929 [2] it was 5.76%; in the data set with L929 [4], 72.6%; in the data set on HeLa [5], 62.84%; in the data set with L929 [6] it was 1.71%; in the data set with HeLa [7], 5.09%. The Activity in the data set with L929 [8] is 21.59%; with L929 [9] it was 0.12%; with HeLa [11], 1.78%; in the data set with HeLa [14], 0.46%. Further, the viability at 10 µM with HeLa [3] stood at 31.4%; with L929 [10] it was 5.69%.
On to `C=C(C)[C@@H]1CC[C@]2(CO)CC[C@]3(C)[C@H](CC[C@@H]4[C@@]5(C)CC[C@H](O)C(C)(C)[C@@H]5CC[C@]43C)[C@@H]12` [BETULIN], for which the Activity with HeLa [1] is reported as 0%; with L929 [2], 0.79%; in the data set with L929 [4] it was 0.61%; in the data set with HeLa [5], 0.03%; in the data set on L929 [6], 5.19%; in the data set on HeLa [7] it was 12.16%. In addition, the Activity was 0% with L929 [8]; 2.94% in the data set on L929 [9]; 0.53% in the data set on HeLa [11]; 58% with HeLa [13]; 2.8% in the data set on HeLa [14]. Moreover, the viability at 10 µM came to 87.8% in the data set on HeLa [3] and 96.5% in the data set on L929 [10]. Also, the inhibition at 24 h, 10 µM in data set [12] worked out at 55%.
